This passage reports IC50 and inhibition results from patent US8575156B2, “Cyclic inhibitors of 11β-hydroxysteroid dehydrogenase 1” (Vitae Pharmaceuticals, Inc., priority 2007, dated 2013).

Like-named read-outs stand apart in the source and are kept apart here.

The target in the assay is 11β-HSD1 (Homo sapiens, UniProt P28845). The assay can be described thus: biochemical. As to conditions: for IC50: IC50 Range, Biological Test Example 1, microsomes from CHO cells overexpressing human 11β-HSD1; for inhibition at 0.1 µM: read-out: Average % inhibition at 100 nM, Biological Test Example 1.
[1] abbreviates: read-out: Average % inhibition at 111.1 nM, Biological Test Example 1, 111.1 nM compound.

Chain of 11β-HSD1 (P28845 whole entry): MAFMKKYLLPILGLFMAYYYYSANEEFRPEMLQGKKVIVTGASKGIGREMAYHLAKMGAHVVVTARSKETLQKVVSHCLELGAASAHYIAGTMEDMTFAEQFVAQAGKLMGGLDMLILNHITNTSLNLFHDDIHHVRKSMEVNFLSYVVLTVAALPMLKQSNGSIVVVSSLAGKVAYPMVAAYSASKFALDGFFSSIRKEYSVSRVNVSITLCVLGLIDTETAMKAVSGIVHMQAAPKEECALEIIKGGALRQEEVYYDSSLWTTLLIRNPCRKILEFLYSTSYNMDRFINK

Regarding `CS(=O)(=O)NCCC1(c2ccccc2)CCN(c2cccc(-c3ccc(F)cc3F)c2)C(=O)O1` (centres unmarked) [EXAMPLE 99, N-(2-(3-(2′,4′-difluorobiphenyl-3-yl)-2-oxo-6-phenyl-1,3-oxazinan-6-yl)ethyl)methanesulfonamide], the IC50 was under 0.1 µM. Besides, the inhibition at 0.1111 µM under setting [1] came to 75.3%.
`Cc1ccc([C@H](C)N2CC[C@](CCCO)(c3ccccc3)OC2=O)cc1` [EXAMPLE 423, (R)-6-(3-hydroxypropyl)-6-phenyl-3-((S)-1-p-tolylethyl)-1,3-oxazinan-2-one] showed a half-maximal inhibitory concentration (IC50) of under 0.1 µM. The inhibition at 0.1 µM (100 nM) was determined as 97.6%.
On to `C[C@@H](c1ccc(Br)cc1)N1CC[C@](CCNS(C)(=O)=O)(c2ccccc2)OC1=O` [EXAMPLE 507, N-(2-((S)-3-((S)-1-(4-bromophenyl)ethyl)-2-oxo-6-phenyl-1,3-oxazinan-6-yl)ethyl)methanesulfonamide], for which the IC50 is under 0.1 µM. Moreover, the inhibition at 0.1 µM (100 nM) came out at 96.1%.
Regarding `CC1(c2ccccc2)CCN(c2nccc(Cl)n2)C(=O)O1` (centres unmarked) [EXAMPLE 57, 3-(4-chloropyrimidin-2-yl)-6-methyl-6-phenyl-1,3-oxazinan-2-one], the IC50 fell in the range of 0.1 to 1 µM. Further, the inhibition at 0.1111 µM (read-out: Average % inhibition at 111.1 nM) was 10.4%.
Compound `C[C@@H](c1cccc(OCC(=O)N2CCNCC2)c1)N1CCC(C)(c2ccccc2)OC1=O` (mixture of isomers) [EXAMPLE 94, (R/S)-6-methyl-3-((S)-1-(3-(2-oxo-2-(piperazin-1-yl)ethoxy)phenyl)ethyl)-6-phenyl-1,3-oxazinan-2-one] gave an IC50 of 0.1 to 1 µM. Besides, the inhibition at 0.1111 µM under setting [1] was 16.2%.
For `C=CC[C@]1(c2ccc(F)cc2)CCN([C@@H](C)c2ccc(C(=O)OC)cc2)C(=O)O1` [EXAMPLE 124, Methyl 4-((S)-1-((R)-6-allyl-6-(4-fluorophenyl)-2-oxo-1,3-oxazinan-3-yl)ethyl)benzoate], the IC50 was under 0.1 µM. Where the note is “100 nM compound”, the inhibition at 0.1 µM stood at 95.2%. The inhibition at 0.1111 µM under setting [1] amounted to 96.8%.
For `O=C1OC(CCO)(c2ccccc2)CCN1c1cccc(-c2ccc(F)cc2F)n1` (centres unmarked) [EXAMPLE 107, 3-(6-(2,4-difluorophenyl)pyridin-2-yl)-6-(2-hydroxyethyl)-6-phenyl-1,3-oxazinan-2-one], in that order: under 0.1 µM, 90.9% and 97%.
For the compound `COc1ccc([C@H](C)N2CC[C@](CCC(C)(C)O)(c3ccccc3)OC2=O)cc1` [EXAMPLE 428, (R)-6-(3-hydroxy-3-methylbutyl)-3-((S)-1-(4-methoxyphenyl)ethyl)-6-phenyl-1,3-oxazinan-2-one], the IC50 was under 0.1 µM. The inhibition at 0.1 µM (100 nM) stood at 82%.
On the same counts, the results for `Cc1ccc([C@H](C)N2CC[C@](CC(C)(C)O)(c3ccc(F)cc3)OC2=O)cc1` [EXAMPLE 417, (S)-6-(4-fluorophenyl)-6-(2-hydroxy-2-methylpropyl)-3-((S)-1-p-tolylethyl)-1,3-oxazinan-2-one] are under 0.1 µM and 97.1%.
On the same counts, the results for `COC(=O)NC(C)(C)C[C@]1(c2ccc(F)cc2)CCN([C@@H](C)c2ccc(Br)cc2)C(=O)O1` [EXAMPLE 606, methyl 1-((S)-3-((S)-1-(4-bromophenyl)ethyl)-6-(4-fluorophenyl)-2-oxo-1,3-oxazinan-6-yl)-2-methylpropan-2-ylcarbamate] are under 0.1 µM and 96.2%.
Compound `Cc1cccc(C2(C)CCN([C@@H](C)c3ccccc3)C(=O)O2)c1` (single isomer, unassigned) [EXAMPLE 87 Isomer 1] displayed an IC50 of 0.1 to 1 µM. Also, the inhibition at 0.1111 µM under setting [1] came to 13.3%.
On to `C[C@@H](c1ccc(Br)cc1)N1CC[C@](CCN2CCNC(=O)C2)(c2ccc(F)cc2)OC1=O` [EXAMPLE 379, (R)-3-((S)-1-(4-bromophenyl)ethyl)-6-(4-fluorophenyl)-6-(2-(3-oxopiperazin-1-yl)ethyl)-1,3-oxazinan-2-one], for which the IC50 was under 0.1 µM. Also, for the setting “100 nM”, the inhibition at 0.1 µM was 57.7%.
In turn, `C[C@@H](c1ccc(F)cc1)N1CC[C@](CCCO)(c2ccc(F)cc2)OC1=O` [EXAMPLE 285, (R)-6-(4-fluorophenyl)-3-((S)-1-(4-fluorophenyl)ethyl)-6-(3-hydroxypropyl)-1,3-oxazinan-2-one] had an IC50 of under 0.1 µM. In addition, where the note is “100 nM compound”, the inhibition at 0.1 µM was determined as 96.2%.
Regarding `C[C@@H](c1ccc(Br)cc1)N1CC[C@](CC(C)(C)CO)(c2ccc(F)cc2)OC1=O` [EXAMPLE 528, (R)-3-((S)-1-(4-bromophenyl)ethyl)-6-(4-fluorophenyl)-6-(3-hydroxy-2,2-dimethylpropyl)-1,3-oxazinan-2-one], the IC50 is under 0.1 µM. Further, under “100 nM”, the inhibition at 0.1 µM is 98.6%.
Regarding `C[C@@H](c1ccc(-c2ccc(CN)cc2)cc1)N1CC[C@](CCCO)(c2ccccc2)OC1=O` [EXAMPLE 495, (R)-3-((S)-1-(4′-(aminomethyl)biphenyl-4-yl)ethyl)-6-(3-hydroxypropyl)-6-phenyl-1,3-oxazinan-2-one], the IC50 is under 0.1 µM. Also, where the note is “100 nM”, the inhibition at 0.1 µM worked out at 95.8%.
`CC1(c2ccccc2)CCN(c2cccc(-c3cccc(-c4nnn[nH]4)c3)c2)C(=O)O1` (centres unmarked) [EXAMPLE 49, 3-(3′-(1H-tetrazol-5-yl)biphenyl-3-yl)-6-methyl-6-phenyl-1,3-oxazinan-2-one] returned an IC50 of 0.1 to 1 µM. The inhibition at 0.1111 µM under setting [1] came to 15.4%.
In the case of `CC[C@@H](c1ccc(OC(F)F)cc1)N1CC[C@](CCC(N)=O)(c2ccccc2)OC1=O` [EXAMPLE 537, 3-((R)-3-((S)-1-(4-(difluoromethoxy)phenyl)propyl)-2-oxo-6-phenyl-1,3-oxazinan-6-yl)propanamide], the IC50 was under 0.1 µM. Also, the inhibition at 0.1 µM (100 nM) was 94.7%.
For `CC(O)C[C@]1(c2ccc(F)cc2)CCN([C@@H](C)c2ccc(F)cc2)C(=O)O1` (stereo partly drawn) [EXAMPLE 408, (6S)-6-(4-fluorophenyl)-3-((S)-1-(4-fluorophenyl)ethyl)-6-(2-hydroxypropyl)-1,3-oxazinan-2-one], in that order: under 0.1 µM and 90.2%.
The compound `COc1ccc([C@H](C)N2CC[C@](CCO)(c3ccc(F)cc3)OC2=O)cc1` [EXAMPLE 195, (S)-6-(4-fluorophenyl)-6-(2-hydroxyethyl)-3-((S)-1-(4-methoxyphenyl)ethyl)-1,3-oxazinan-2-one] came in with a half-maximal inhibitory concentration (IC50) of under 0.1 µM. For the same compound, the inhibition at 0.1 µM (100 nM compound) came out at 96.8%.
The compound `C[C@@H](c1ccc(-c2ccc(F)cc2)cc1)N1CC[C@](CCC(C)(C)O)(c2ccccc2)OC1=O` [EXAMPLE 248, (R)-3-((S)-1-(4′-fluorobiphenyl-4-yl)ethyl)-6-(3-hydroxy-3-methylbutyl)-6-phenyl-1,3-oxazinan-2-one] returned an IC50 of under 0.1 µM. In addition, the inhibition at 0.1 µM (100 nM compound) is 96.7%.
Regarding `CC(=O)NC(C)(C)C[C@]1(c2ccc(F)cc2)CCN([C@@H](C)c2ccc(Br)cc2)C(=O)O1` [EXAMPLE 626, N-(1-((S)-3-((S)-1-(4-bromophenyl)ethyl)-6-(4-fluorophenyl)-2-oxo-1,3-oxazinan-6-yl)-2-methylpropan-2-yl)acetamide], the IC50 is under 0.1 µM. The inhibition at 0.1 µM (100 nM) came out at 94.8%.
In turn, `C=CC[C@]1(c2ccc(F)cc2)CCN([C@@H](C)c2ccc(N3CCN(C)CC3)cc2)C(=O)O1` [EXAMPLE 231, (R)-6-allyl-6-(4-fluorophenyl)-3-((S)-1-(4-(4-methylpiperazin-1-yl)phenyl)ethyl)-1,3-oxazinan-2-one] showed an IC50 of under 0.1 µM. In addition, the inhibition at 0.1 µM (100 nM compound) was 57%.
For `C[C@@H](c1ccc(-c2ccc(F)cc2F)cc1)N1CC[C@](CC(O)CO)(c2ccc(F)cc2)OC1=O` (stereo partly drawn) [EXAMPLE 52, (6S)-3-((S)-1-(2′,4′-difluorobiphenyl-4-yl)ethyl)-6-(2,3-dihydroxypropyl)-6-(4-fluorophenyl)-1,3-oxazinan-2-one], in that order: under 0.1 µM and 98.6%.
For `C[C@@H](c1ccc(-c2ccc(F)cc2F)cc1)N1CC[C@](CC(O)CO)(c2ccccc2)OC1=O` (single isomer, unassigned) [EXAMPLE 173 Isomer 1], in that order: under 0.1 µM and 96.7%.
`C=CCC1(c2ccc(F)cc2)CCN(Cc2cc(Cl)ccc2Cl)C(=O)O1` (centres unmarked) [EXAMPLE 344, 6-allyl-3-(2,5-dichlorobenzyl)-6-(4-fluorophenyl)-1,3-oxazinan-2-one] showed an IC50 of under 0.1 µM. The inhibition at 0.1 µM (100 nM) worked out at 65.7%.
With `C[C@@H](c1ccc(CO)cc1)N1CC[C@](CCCO)(c2ccc(F)cc2)OC1=O` [EXAMPLE 154, (R)-6-(4-fluorophenyl)-3-((S)-1-(4-(hydroxymethyl)phenyl)ethyl)-6-(3-hydroxypropyl)-1,3-oxazinan-2-one], the IC50 was under 0.1 µM. Further, under setting [1], the inhibition at 0.1111 µM was 79%.
`O=C1OC(CCCO)(c2ccc(F)cc2)CCN1Cc1cc(Cl)ccc1Cl` (centres unmarked) [EXAMPLE 345, 3-(2,5-dichlorobenzyl)-6-(4-fluorophenyl)-6-(3-hydroxypropyl)-1,3-oxazinan-2-one] displayed an IC50 of under 0.1 µM. Moreover, the inhibition at 0.1 µM (100 nM) stood at 74.7%.
`C[C@@H](c1ccc(-c2ccc(F)cc2F)cc1)N1CC[C@](CC(O)CO)(c2ccc(F)cc2)OC1=O` (single isomer, unassigned) [EXAMPLE 52 Isomer 1] registered an IC50 of under 0.1 µM. Also, the inhibition at 0.1 µM (100 nM compound) was determined as 92.8%.
Take `C[C@@H](c1ccc(Cl)cc1F)N1CC[C@](CCCO)(c2ccc(F)cc2)OC1=O` [EXAMPLE 534, (R)-3-((S)-1-(4-chloro-2-fluorophenyl)ethyl)-6-(4-fluorophenyl)-6-(3-hydroxypropyl)-1,3-oxazinan-2-one]: the IC50 is under 0.1 µM. Moreover, the inhibition at 0.1 µM (100 nM) came out at 98.5%.
As to `Cc1nnc(C[C@]2(c3ccccc3)CCN([C@@H](C)c3ccc(Br)cc3)C(=O)O2)o1` [EXAMPLE 530, (S)-3-((S)-1-(4-bromophenyl)ethyl)-6-((5-methyl-1,3,4-oxadiazol-2-yl)methyl)-6-phenyl-1,3-oxazinan-2-one], the IC50 was under 0.1 µM. Further, for the setting “100 nM”, the inhibition at 0.1 µM is 73.3%.

As usually defined, the IC50 is the point on the concentration scale where inhibition reaches its midpoint. Lower therefore signals inhibition by little substance. Broadly, the inhibition is the change of the read-out against control, counted positive when it falls.
